Our source for the EC50 values is patent US10344019B2 (priority 2010, dated 2019).

Format in all cases: cell-based
Test [1] concerns HCV 1a RLuc cells (dicistronic genotype 1a H77 replicon, RLuc reporter). The test can be described thus: microbe, parasite or virus in culture. As to conditions: Hepatitis C virus, read-out: 1a. In outline:
(§1)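 Renilla luciferase HCV replicon cells: dicistronic 1b Con1, 1a H77 or 2a JFH-1 replicons, or a JFH-1 chimera carrying J6 NS5A (M31 present). Compound in DMSO serial dilutions, 72 h incubation, then lysis and luciferase read. EC50 by non-linear regression.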

Test [2] relates to HCV 1b RLuc cells (dicistronic genotype 1b Con1 replicon, RLuc reporter). The test can be described thus: microbe, parasite or virus in culture. As to conditions: Hepatitis C virus, read-out: 1b (nM). The method, boiled down:
as §1

The subject of test [3] is HCV 2a JFH-1 Rluc cells (dicistronic genotype 2a JFH-1 replicon, RLuc reporter). The test can be described thus: microbe, parasite or virus in culture. Particulars: Hepatitis C virus, read-out: 2a JFH. In outline: as §1
Test [4] concerns HCV 2b Rluc cells (NS5A chimeric genotype 2a JFH-1 replicon with genotype 2b MD2b-1 NS5A gene, M31 present). Briefly: microbe, parasite or virus in culture. Particulars: Hepatitis C virus, read-out: 2b. The method, boiled down: (§2)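 Replicon cells stably carrying the listed RLuc-encoding dicistronic replicons were seeded and treated with DMSO serial dilutions of compound (10 mM stocks) diluted into culture medium. After 72 h, cells were lysed and Renilla luciferase activity measured. EC50 was derived by non-linear regression.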

In test [5] the test system is HCV 3a RLuc cells (NS5A chimeric genotype 1b Con1 replicon with consensus genotype 3a NS5A gene). Briefly: microbe, parasite or virus in culture. Particulars: Hepatitis C virus. The method, boiled down:
as §2

Test [6] relates to HCV 4a Rluc cells (NS5A chimeric genotype 1b Con1 replicon with genotype 4a NS5A gene). Briefly: microbe, parasite or virus in culture. As to conditions: Hepatitis C virus, read-out: 4a. The method, boiled down:
as §2

Test [7] relates to HCV 2a Rluc cells (NS5A chimeric genotype 2a JFH-1 replicon with genotype 2a J6 strain NS5A gene, M31 present). The test can be described thus: HCV replicon reporter assay, genotype 2a J6 (M31 present). As to conditions: Hepatitis C virus, read-out: 2a J6. The method, boiled down: as §1
Where [8] appears, read: read-out: 3a, genotype 3a replicon.
[9] abbreviates: genotype 2a JFH-1 RLuc replicon.
[10] abbreviates: read-out: 3a, genotype 3a NS5A chimeric replicon.
[11] abbreviates: genotype 1a H77 replicon, RLuc reporter.
The mark [12] stands for this setting: genotype 2a JFH-1 replicon, RLuc reporter.
[13] abbreviates: read-out: 3a, genotype 3a NS5A chimeric 1b Con1 replicon.

pEC50: −log10 of the molar value. Read-outs that look alike come from different tables or passages of the source.

`CN(C)CC(=O)N[C@@H](C(=O)N1CCC[C@H]1c1ncc(-c2cc3c4c(c2)OCc2cc(-c5cnc([C@@H]6CCCN6C(=O)[C@H](NC(=O)CN(C)C)c6ccccc6)[nH]5)cc(c2-4)OC3)[nH]1)c1ccccc1` [Example 462]: the pEC50 in test [1] (genotype 1a replicon) was 7.36 to 9.00; in test [3] (genotype 2a JFH-1 replicon), 9.00 to 12.00; in test [4], 7.36 to 9.00; in test [5] (setting [8]) it was 9.00 to 12.00; in test [6] it was 8.30 to 9.00; in test [7] it was 7.36 to 9.00. Also, in test [2], the EC50 is 8.76 nM.

In the case of `COC(=O)N[C@H](C(=O)N1CC2(C[C@H]1c1nc3c([nH]1)-c1ccc(-c4ccc5c(ccc6nc([C@@H]7CCCN7C(=O)[C@H](NC(=O)OC)c7ccccc7)[nH]c65)c4)cc1CC3)OCCO2)C(C)C` [Example 355], the pEC50 was 9.00 to 12.00 in test [1] (genotype 1a replicon); 9.00 to 12.00 in test [3] (genotype 2a JFH-1 replicon); 7.36 to 9.00 in test [4]; 9.00 to 12.00 in test [5] (setting [8]); 9.00 to 12.00 in test [6]; 7.36 to 9.00 in test [7]. For the same compound, in test [2], the EC50 amounted to 0.095 nM.

As to `COC(=O)N[C@H](C(=O)N1CCC[C@H]1c1nc2ccc3cc(-c4ccc5c(ccc6nc([C@@H]7C[C@H](COC(F)F)CN7C(=O)[C@H](NC(=O)C7CC7)c7ccccc7)[nH]c65)c4)ccc3c2[nH]1)C(C)C` [Example 547], the pEC50 in test [1] (genotype 1a H77 RLuc replicon), in test [3] (setting [9]), in test [4], in test [5] (setting [10]), in test [6] and in test [7] was 9.00 to 12.00 throughout. Further, in test [2], the EC50 turned out to be 0.005 nM.

Consider `COC(=O)N[C@H](C(=O)N1[C@@H]2C[C@@H]2C[C@H]1c1nc(Cl)c(-c2ccc(-c3ccc4c(ccc5nc([C@@H]6C[C@H]7C[C@H]7N6C(=O)[C@@H](NC(=O)OC)C(C)C)[nH]c54)c3)cc2F)[nH]1)C(C)C` [Example 395], for which the pEC50 in test [1] (genotype 1a replicon) is 9.00 to 12.00; in test [3] (genotype 2a JFH-1 replicon) it was 9.00 to 12.00; in test [4] it was below 7.36; in test [5] (setting [8]), 9.00 to 12.00; in test [6], 9.00 to 12.00; in test [7] it was below 7.36. Further, the EC50 in test [2] worked out at 0.004 nM.

Take `COC(=O)N[C@H](C(=O)N1CCC[C@H]1c1nc2ccc3cc(-c4ccc5c(ccc6nc([C@@H]7[C@H]8CC[C@H](C8)N7C(=O)[C@@H](NC(=O)OC)C7CCOCC7)[nH]c65)c4)ccc3c2[nH]1)C(C)C` [Example 95]: the pEC50 was 9.00 to 12.00 in test [1] (72 h, Table 2, genotype 1a H77 replicon, 72 hours); 9.00 to 12.00 in test [3] (72 h, Table 2, genotype 2a JFH-1 replicon, 72 hours); 7.36 to 9.00 in test [4]; 9.00 to 12.00 in test [5] (read-out: 3a, Table 2, genotype 3a NS5A chimeric replicon); 9.00 to 12.00 in test [6]; 9.00 to 12.00 in test [7]. For the same compound, in test [2] (72 h), the EC50 was found to be 0.028 nM.

Regarding `COC[C@H]1C[C@@H](c2nc3ccc4cc(-c5ccc6c(ccc7nc([C@@H]8CCCN8C(=O)[C@@H](NC(=O)OC)C(C)C)[nH]c76)c5)ccc4c3[nH]2)N(C(=O)[C@H](NC(=O)C2CC2)c2ccccc2)C1` [Example 508], the pEC50 in test [1] (genotype 1a H77 RLuc replicon), in test [3] (setting [9]), in test [4], in test [5] (setting [10]), in test [6] and in test [7] was 9.00 to 12.00 each time. The EC50 in test [2] worked out at 0.026 nM.

Consider `COC(=O)N[C@H](C(=O)N1CCC[C@H]1c1ncc(-c2ccc3c(ccc4cc(-c5cnc([C@@H]6CCCN6C(=O)[C@@H](NC(=O)OC)C(C)C)[nH]5)ccc43)c2)[nH]1)C(C)C` [Example 282], for which the pEC50 in test [1] (setting [11]) was 9.00 to 12.00; in test [3] (setting [12]), 9.00 to 12.00; in test [4] it was below 7.36; in test [5] (setting [13]), 9.00 to 12.00; in test [6], 9.00 to 12.00; in test [7], below 7.36. In test [2], the EC50 turned out to be 0.007 nM.

With `CCC(=O)N[C@@H](C(=O)N1CCC[C@H]1c1ncc(-c2ccc(-c3ccc4c(ccc5nc([C@@H]6C[C@H](COC)CN6C(=O)[C@@H](NC(=O)OC)C(C)C)[nH]c54)c3)cc2)[nH]1)c1ccccc1` [Example 479], the pEC50 in test [1] (genotype 1a replicon), in test [3] (genotype 2a JFH-1 replicon), in test [4], in test [5] (setting [8]), in test [6] and in test [7] was 9.00 to 12.00 throughout. Also, the EC50 in test [2] came out at 0.034 nM.

In the case of `COC[C@H]1C[C@@H](c2nc3ccc4cc(-c5ccc6c(ccc7nc([C@@H]8[C@@H]9CC[C@@H](C9)N8C(=O)[C@@H](NC(=O)OC)C(C)C)[nH]c76)c5)ccc4c3[nH]2)N(C(=O)[C@H](NC(=O)OC)c2ccccc2)C1` [Example 451], the pEC50 in test [1] (genotype 1a replicon), in test [3] (genotype 2a JFH-1 replicon), in test [4], in test [5] (setting [8]), in test [6] and in test [7] was 9.00 to 12.00 in each case. Moreover, the EC50 in test [2] is 0.07 nM.

In the case of `COC(=O)N[C@H](C(=O)N1CCC[C@H]1c1ncc(-c2ccc3cc(-c4ccc5c(ccc6nc([C@@H]7CCCN7C(=O)[C@H](NC(=O)OC)c7ccccc7)[nH]c65)c4)ccc3c2)[nH]1)C(C)C` [Example 169], the pEC50 in test [1] (setting [11]) was 9.00 to 12.00; in test [3] (setting [12]), 9.00 to 12.00; in test [4], below 7.36; in test [5] (setting [13]) it was 9.00 to 12.00; in test [6] it was 9.00 to 12.00; in test [7], below 7.36. In test [2], the EC50 is 0.006 nM.

As for `COC[C@H]1C[C@@H](c2ncc(-c3ccc(-c4ccc5c(ccc6nc([C@@H]7CCCN7C(=O)[C@@H](NC(=O)OC)C(C)C)[nH]c65)c4)cc3)[nH]2)N(C(=O)[C@@H](NC(=O)OC)C(C)C)C1` [Example 441], the pEC50 in test [1] (genotype 1a replicon) was 9.00 to 12.00; in test [3] (genotype 2a JFH-1 replicon) it was 9.00 to 12.00; in test [4] it was below 7.36; in test [5] (setting [8]), 9.00 to 12.00; in test [6], 9.00 to 12.00; in test [7], 7.36 to 9.00. The EC50 in test [2] came to 0.03 nM.

`COC(=O)N[C@H](C(=O)N1[C@@H]2C[C@@H]2C[C@H]1c1ncc(-c2cc3c4c(c2)OCc2cc(-c5cnc([C@@H]6C[C@H]7C[C@H]7N6C(=O)[C@H](NC(=O)OC)c6ccccc6)[nH]5)cc(c2-4)OC3)[nH]1)C(C)C` [Example 501]: the pEC50 in test [1] (genotype 1a H77 RLuc replicon) is 9.00 to 12.00; in test [3] (setting [9]), 9.00 to 12.00; in test [4] it was 7.36 to 9.00; in test [5] (setting [10]) it was 9.00 to 12.00; in test [6] it was 9.00 to 12.00; in test [7], below 7.36. In addition, in test [2], the EC50 turned out to be 0.021 nM.

Turning to `O=C(N[C@@H](C(=O)N1CCC[C@H]1c1ncc(-c2cc3c4c(c2)OCc2cc(-c5cnc([C@@H]6CCCN6C(=O)[C@H](NC(=O)C6CCC6)c6ccccc6)[nH]5)cc(c2-4)OC3)[nH]1)c1ccccc1)C1CCC1` [Example 449], the pEC50 in test [1] (genotype 1a replicon), in test [3] (genotype 2a JFH-1 replicon), in test [4], in test [5] (setting [8]), in test [6] and in test [7] was 9.00 to 12.00 in each case. Also, the EC50 in test [2] stood at 0.139 nM.

In the case of `COC[C@H]1C[C@@H](c2nc3ccc4cc(-c5ccc6c(ccc7nc([C@@H]8C[C@H](C)CN8C(=O)[C@@H](NC(=O)OC)C(C)C)[nH]c76)c5)ccc4c3[nH]2)N(C(=O)[C@H](NC(=O)OC)c2ccccc2)C1` [Example 553], the pEC50 in test [1] (genotype 1a H77 RLuc replicon), in test [3] (setting [9]), in test [4], in test [5] (setting [10]), in test [6] and in test [7] was 9.00 to 12.00 throughout. In addition, the EC50 in test [2] stood at 0.014 nM.

Turning to `COC(=O)N[C@H](C(=O)N1CCC[C@H]1c1nc2ccc3cc(-c4ccc(-c5[nH]c([C@@H]6[C@H]7CC[C@H](C7)N6C(=O)[C@@H](NC(=O)OC)C(C)C)nc5Cl)cc4)ccc3c2[nH]1)C(C)C` [Example 388], the pEC50 in test [1] (genotype 1a replicon) is 9.00 to 12.00; in test [3] (genotype 2a JFH-1 replicon), 9.00 to 12.00; in test [4], below 7.36; in test [5] (setting [8]), 9.00 to 12.00; in test [6], 9.00 to 12.00; in test [7], below 7.36. Besides, in test [2], the EC50 is 0.008 nM.

As for `COC[C@H]1C[C@@H](c2nc3ccc4cc(-c5ccc(-c6cnc([C@@H]7CCCN7C(=O)[C@H](N)c7ccccc7)[nH]6)cc5)ccc4c3[nH]2)N(C(=O)[C@@H](NC(=O)OC)C(C)C)C1` [Example 477], the pEC50 in test [1] (genotype 1a replicon), in test [3] (genotype 2a JFH-1 replicon), in test [4], in test [5] (setting [8]), in test [6] and in test [7] was 9.00 to 12.00 throughout. The EC50 in test [2] turned out to be 0.089 nM.
